Three compounds from US20220289731A1, “MELANOCORTIN-4 RECEPTOR AGONISTS” (LG CHEM, LTD., priority 2019, published 2022) can be followed below.

Structures are written as SMILES. Where two headings read alike, the source gives them in different places.

A short description of data set [1]: Pharmacokinetic profile in mice, plasma and brain, oral administration. Type of data set: in vivo, C57BL6 mice. The following applies: 10 mg/kg; for AUC(0-inf) / half-life / Cmax / Kp: C57BL6, mouse; for Kp: brain/plasma, read-out: Brain to Plasma AUC ratio, mean ratio. As for the experimental part: In order to investigate the pharmacokinetics (PK) properties of the compound of Example 1 and the compounds of comparative examples, the following experiment was performed. In order to perform the PK test for the compound of Example 1 and the compounds of the comparative examples ([…]), about 7 week-old C57BL6 mice were prepared, 12 individuals were assigned per administered substance, separated into groups, and starved for oral administration. On the day of administration, a drug solution was prepared at a concentration of 1 mg/mL by using distilled water (DW) as a vehicle and was orally administered at […] body weight of each individual, and the final dose was 10 mg/kg. At 1, 3, 8, and 24 hours after the administration, whole blood was collected through cardiac blood collection from each of the 3 individuals in each group and then placed in a heparin tube to prevent coagulation. Thereafter, the cerebrum of each individual was collected and placed in an EP tube, the weight of the tissue was measured, and frozen storage was performed at -20° C. […] In this case, AN included an internal standard. […] After 0.5 μL of the supernatant obtained after deproteinization was injected into LC-MS/MS, peak areas of the compounds of the example and the comparative examples ([…]) were corrected with the peak areas of IS to obtain the peak response at each sample collection point and perform the concentration conversion by a calibration curve. The pharmacokinetic parameters (Cmax, AUCinf, t1/2, and the like) were calculated by a noncompartmental analysis method by using WinNonlin 8.1 for the values of the blood concentration with time for each administration group. The pharmacokinetic characteristics of each compound were compared by comparing exposure, half-life changes, and the like for each drug administration group, and the resultant values are shown in Tables 5 and 6.

Data set [2] concerns the target T1, MC4R (Homo sapiens, UniProt P32245). The data set can be described thus: cAMP assay (cAMP Hunter Gs-coupled CHO-K1 cell line). The format is cell-based. Details: expressed in transfected cells; host or cells: CHO-K1 (cAMP Hunter Gs-coupled cell line). To be noted: CHO-K1 cells overexpressing MC4R, 30 min at 37° C. An excerpt: The melanocortin receptor is a type of G-protein coupled receptor (GPCR), and the main role of G-protein is to activate secondary transducers to regulate cellular responses to many physiological stimuli through signal transduction. MC4R is a Gs-coupled receptor, and it is known that if MC4R interacts with an agonist, adenylate cyclase (AC) is activated to increase the concentration of cyclic AMP (cAMP), which is one of the secondary transducers in cells. Therefore, it is possible to evaluate the activity of melanocortin receptors by measuring the generation of cAMP signals.
After cAMP Hunter Gs-coupled cell lines (CHO-K1 cell line) in which each of MC1R, MC3R, MC4R and MCSR was overexpressed were established so that the increase in the cAMP level in cells due to agonist reaction was measurable, the cells were inoculated into each well of a white cell culture plate and incubated for 24 hours in a 37° C. incubator in the presence of 5% CO2. After the incubation, the medium was removed, and 15 μl of a 2:1 HBBS/10 mM HEPES:cAMP XS+Ab reagent was added. After 5 μl of the sample diluted 4 times with buffer was added, the vehicle concentration was set to 1%, and the MC4R agonist compound diluted at each step concentration was added, followed by reaction at 37° C. for 30 minutes. The activity (%) of each agonist compound is expressed as 100%×(average RLU value of sample−average RLU value of vehicle control)/(average RLU value of max control−average RLU value of vehicle control), and the value was analyzed by CBIS data analysis suite (ChemInnovation, CA).
In general terms: Changes in cAMP serve as a functional read-out for many G protein-coupled receptors.
Target sequence in this assay (P32245 whole entry, species assumed): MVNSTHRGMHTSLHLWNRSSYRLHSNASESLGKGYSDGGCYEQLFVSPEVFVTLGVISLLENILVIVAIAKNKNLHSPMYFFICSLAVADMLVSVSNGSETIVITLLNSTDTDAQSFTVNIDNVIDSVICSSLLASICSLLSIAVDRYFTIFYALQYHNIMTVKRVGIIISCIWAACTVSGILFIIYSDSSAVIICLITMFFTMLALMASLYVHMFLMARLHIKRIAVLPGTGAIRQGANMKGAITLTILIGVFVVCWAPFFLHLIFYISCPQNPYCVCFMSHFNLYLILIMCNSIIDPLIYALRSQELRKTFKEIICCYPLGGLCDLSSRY

The target of data set [3] is T1, MC4R. The experiment in a line: β-arrestin assay (Pathhunter eXpress U2OS cell line). Type of data set: cell-based. Details: expressed in transfected cells; host or cells: U2OS (Pathhunter eXpress β-arrestin cell line). To be noted: U2OS cells, 90 min at 37° C. The source says: The melanocortin receptor is a type of G-protein coupled receptor (GPCR) and regulates various physiological responses by transducing signals from many neurotransmitters. When GPCR is phosphorylated, β-arrestin is bound to the phosphorylated part of the receptor and plays an important role in activating various signaling pathways in cells through interaction with other proteins. It is known that, when the melanocortin receptor interacts with an agonist, β-arrestin is mobilized and is involved in the β-arrestin-mediated signaling pathway. Therefore, the activity of the melanocortin receptor can be evaluated through the measurement of β-arrestin.
A Pathhunter eXpress β-arrestin cell line (U2OS cell line) in which Prolink (PK)-tagged MC1R, MC3R, MC4R, MC5R and Enzyme acceptor (EA)-tagged β-arrestin were expressed together was established. When the MCR-PK portion of this cell line is activated, β-arrestin-EA is mobilized, and enzyme acceptor (EA) and Prolink (PK), which are the β-galactosidase enzyme fragments, interact. The activated enzyme hydrolyzes the substrate by β-galactosidase activity to produce a chemiluminescent signal, so that the activity can be measured. After the Pathhunter eXpress β-arrestin cell line (U2OS cell line) was incubated, the cells were inoculated into each well of the cell culture plate and incubated for 48 hours in a 37° C. incubator in the presence of 5% CO2. After the incubation, 5 μl of the sample diluted 5 times with buffer was added, the vehicle concentration was set to 1%, and the MC4R agonist compound diluted at each step concentration was added, followed by reaction at 37° C. for 90 minutes. The activity (%) of each agonist compound is expressed as 100%×(average RLU value of sample−average RLU value of vehicle control)/(average maximum value of control ligand−average RLU value of vehicle control), and the value was analyzed by CBIS data analysis suite (ChemInnovation, CA).
Target sequence in this assay (P32245 whole entry): as the sequence (P32245 whole entry, species assumed) above
Target sequence in this assay (P32121 whole entry partner): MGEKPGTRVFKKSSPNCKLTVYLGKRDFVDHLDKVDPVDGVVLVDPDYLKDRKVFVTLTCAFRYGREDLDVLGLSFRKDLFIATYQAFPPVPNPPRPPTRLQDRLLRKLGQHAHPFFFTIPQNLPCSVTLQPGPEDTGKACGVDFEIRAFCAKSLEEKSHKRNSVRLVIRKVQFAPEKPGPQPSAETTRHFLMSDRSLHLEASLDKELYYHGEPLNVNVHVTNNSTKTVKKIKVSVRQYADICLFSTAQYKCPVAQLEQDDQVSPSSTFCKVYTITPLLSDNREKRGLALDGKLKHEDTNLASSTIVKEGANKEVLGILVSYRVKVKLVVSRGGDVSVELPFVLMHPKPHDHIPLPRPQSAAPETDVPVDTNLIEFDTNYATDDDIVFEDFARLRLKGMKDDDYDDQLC

The mark [4] stands for this setting: brain, read-out: t1/2, Brain (converted).
[5] abbreviates: plasma, read-out: AUCinf, Plasma.
Where [6] appears, read: plasma, read-out: t1/2, Plasma (converted).

As a reminder, the Cmax is the maximum level reached in the sampled fluid or tissue. By EC50 is commonly meant the concentration giving half of the maximal effect. A higher EC50 goes with a need for much substance. With `CC(=O)N(C1CCC(C)(C)CC1)[C@H]1C[C@@H](C(=O)N2CCOCC2)N(C(=O)[C@@H]2CN(C(C)(C)C)C[C@H]2c2ccc(F)cc2F)C1.Cl` [Comparative Example 1 (A95), N-((3S,5S)-1-((3S,4R)-1-(tert-butyl)-4-(2,4-difluorophenyl)pyrrolidine-3-carbonyl)-5-(morpholine-4-carbonyl)pyrrolidin-3-yl)-N-(4,4-dimethylcyclohexyl)acetamide hydrochloride], the “Cmax, Brain” value in data set [1] (brain) amounted to 20 ng/mL. For the same compound, the AUC(0-inf) in data set [1] (brain, read-out: AUCinf, Brain) is 222 ng·h/mL; in data set [1] (setting [5]), 565 ng·h/mL. Further, the values for the half-life in data set [1] (setting [4]) and in data set [1] (setting [6]) were 6 h and 2.7 h, respectively. Moreover, the Cmax in data set [1] (plasma) was found to be 205 ng/mL. In data set [1], the Kp was determined as 0.39. The EC50 was determined as 0.335 µM in data set [2] and 0.176 µM in data set [3].
For `CC(C)C(=O)N([C@H]1C[C@@H](C(=O)N2CCOCC2)N(C(=O)[C@@H]2CN(C(C)(C)C)C[C@H]2c2ccc(Cl)cc2)C1)[C@H]1CC[C@@H](C)CC1.Cl` [Example 1, N-((3S,5S)-1-((3S,4R)-1-(tert-butyl)-4-(4-chlorophenyl)pyrrolidine-3-carbonyl)-5-(morpholine-4-carbonyl)pyrrolidin-3-yl)-N-((1s,4R)-4-methylcyclohexyl)isobutyramide hydrochloride], the “Cmax, Brain” value in data set [1] (brain) was found to be 49.1 ng/mL. The AUC(0-inf) in data set [1] (brain, read-out: AUCinf, Brain) is 1500 ng·h/mL; in data set [1] (setting [5]), 2070 ng·h/mL. Further, the results for the half-life in data set [1] (setting [4]) and in data set [1] (setting [6]) were 19 h and 3.9 h, respectively. In addition, in data set [1] (plasma), the highest level (Cmax) was 232 ng/mL. In addition, the Kp in data set [1] came to 0.72. For the same compound, the figures for the EC50 in data set [2] and in data set [3] were 0.0365 µM and 0.0046 µM, respectively.
`CC(=O)N(C1CCC(C)(C)CC1)[C@H]1C[C@@H](C(=O)N2CCOCC2)N(C(=O)[C@@H]2CN(C(C)(C)C)C[C@H]2c2ccc(Cl)cc2)C1.Cl` [Comparative Example 2 (A96), N-((3S,5S)-1-((3S,4R)-1-(tert-butyl)-4-(4-chlorophenyl)pyrrolidine-3-carbonyl)-5-(morpholine-4-carbonyl)pyrrolidin-3-yl)-N-(4,4-dimethylcyclohexyl)acetamide hydrochloride]: the “Cmax, Brain” value in data set [1] (brain) was 27.1 ng/mL. Also, the AUC(0-inf) in data set [1] (brain, read-out: AUCinf, Brain) is 530 ng·h/mL; in data set [1] (setting [5]), 1650 ng·h/mL. Besides, the half-life in data set [1] (setting [4]) is 8 h; in data set [1] (setting [6]), 2.6 h. This compound also returned a Cmax in data set [1] (plasma) of 337 ng/mL. Further, the Kp in data set [1] was 0.32. Moreover, the values for the EC50 in data set [2] and in data set [3] were 0.15 µM and 0.0443 µM, respectively.
